# According to patent US5691351A, “Bis-(Heteroarylmethoxyphenyl)cycloalkyl carboxylates as inhibitors of leukotriene biosynthesis” (Abbott Laboratories, priority 1996, dated 1997):
# pIC50: −log10 of the molar value. Where a name gives a salt, the structure may show the parent alone. Read-outs that look alike come from different tables or passages of the source.
# Key:
# [1] = test system: Calcium Ionophore Stimulated Leukotriene Formation in Human Polymorphonuclear Leukocytes; experiment: Calcium ionophore-induced LTB4 formation in human polymorphonuclear leukocytes (Lipoxygenase Inhibition Determination); type: cell-based; conditions: human PMNL, 15 min preincubation, calcium ionophore 8.3 μM, 10 min at 37° C., LTB4 by enzyme-linked immunoassay or HPLC, read-out: Inhibitory Potencies Against Calcium Ionophore Stimulated Leukotriene Formation in Human Polymorphonuclear Leukocytes, IC50
# Protocol: Leukotriene biosynthesis inhibitory activity of representative compounds of the present invention was evaluated in an assay involving calcium ionophore-induced LTB4 expressed in human polymorphornuclear leukocytes (PMNL). Human PMNL isolated from heparinized (20 USP units/mL) venous blood (25 mL) obtained from healthy volunteers was layered over an equal volume of Ficoll-Hypaque Mono-Poly Resolving Medium (ICN Flow, Costa Mesa, Calif.) and centrifugated at 400×g for 40 min at 20° C. The PMNL was collected, erythrocytes lysed and washed 2× and suspended at 1.0×10^7 cells/mL in Earle's balanced salt solution with 17 mM Earle's HEPES. […] Incubations were stopped with the addition of two volumes of ice-cold methanol followed by centrifuging the cell suspensions at 4° C. for 10 min at 450×g. The mount of LTB4 in the methanol extract was analyzed by enzyme-linked immunoassay or by HPLC analysis.
# [2] = test system: leukotriene synthesis; conditions: Bioorganic and Medicinal Chemistry Letters, 1: 645-648 (1991); cited from earlier work
SMILES,pIC50 [1],other results
"O=C(O)C1CCC(c2ccc(OCc3ccc4ccccc4n3)cc2)(c2ccc(OCc3ccc4ccccc4n3)cc2)CC1 [Example 1, 4,4-bis-(4(2-quinolylmethoxy)phenyl)cyclohexane carboxylic acid]",7.23,–
"O=C(O)C1CCC(c2ccc(OCc3ccc4ccccc4n3)cc2)(c2ccc(OCc3ccc4ccccc4n3)cc2)CC1 [Example 2, 4,4-bis-(4-(2-quinolylmethoxy)phenyl)cyclohexane carboxylic acid sodium salt]",–,pIC50 ([1]; sodium salt): 7.33
"CC(=NOC1CCC(c2ccc(OCc3ccc4ccccc4n3)cc2)(c2ccc(OCc3ccc4ccccc4n3)cc2)CC1)C(=O)O [Example 5, sodium salt]",7.43,–
"O=C(O)CSC(CCCc1ccc(Cl)cc1)c1ccc(OCc2ccc3ccccc3n2)cc1 [L-674,636, {[4-(4-chlorophenyl)-1-[4-(2-quinolylmethoxy)phenyl]-butyl]thio}acetic acid]",–,leukotriene synthesis inhibitor (in words) [2]: potent and orally active leukotriene synthesis inhibitor
